Experimental data published in the supplement of paper PMC11061612.

How the values were obtained:
Capivasertib = compound: C1CN(CCC1(C(=O)N[C@@H](CCO)C2=CC=C(C=C2)Cl)N)C3=NC=NC4=C3C=CN4 [Capivasertib]
Outline: (§1)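 Cancer cell lines were seeded in 1536-well plates in 7.5 μl DMEM/F12 or RPMI with 10% FBS, held 24 hours at 37°C and 5% CO2, then dosed for 72 hours (final DMSO typically 0.2%). Viability was read by CellTiter-Glo 2.0 luminescence and scaled between blank-well and DMSO-well means. The single-agent IC50 comes from dose responses fitted to a two-parameter logistic curve with a non-linear mixed effects model.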

AZD1775 = compound: C=CCn1c(=O)c2cnc(Nc3ccc(N4CCN(C)CC4)cc3)nc2n1-c1cccc(C(C)(C)O)n1 [AZD1775]; conditions: max 3 µM
Outline: as §1

AZD0156 = compound: CN(C)CCCOc1ccc(-c2ccc3ncc4c(c3c2)n(C2CCOCC2)c(=O)n4C)cn1 [AZD0156]; conditions: max 3 µM
Outline: as §1

Olaparib = compound: O=C(c1cc(Cc2n[nH]c(=O)c3ccccc23)ccc1F)N1CCN(C(=O)C2CC2)CC1 [Olaparib]
Outline: as §1

Selumetinib = compound: Cn1cnc2c(F)c(Nc3ccc(Br)cc3Cl)c(C(=O)NOCCO)cc21 [Selumetinib]; conditions: max 10 µM
Outline: as §1

AZD2811 = compound: CCN(CCO)CCCOc1ccc2c(Nc3cc(CC(=O)Nc4cccc(F)c4)[nH]n3)ncnc2c1 [AZD2811]; conditions: max 1 µM
Outline: as §1

Venetoclax = compound: CC1(C)CCC(CN2CCN(c3ccc(C(=O)NS(=O)(=O)c4ccc(NCC5CCOCC5)c([N+](=O)[O-])c4)c(Oc4cnc5[nH]ccc5c4)c3)CC2)=C(c2ccc(Cl)cc2)C1 [Venetoclax]; conditions: max 1 µM
Outline: as §1

Prexasertib = compound: COc1cccc(OCCCN)c1-c1cc(Nc2cnc(C#N)cn2)n[nH]1 [Prexasertib]; conditions: max 1 µM
Outline: as §1

AZD4320 = compound: CN(CC[C@H](CSC1=CC=CC=C1)NC2=C(C=C(C=C2)S(=O)(=O)NC(=O)C3=CC=C(C=C3)N4CCC(CC4)[C@H](C5=CC=CC=C5C6=CC=C(C=C6)Cl)O)S(=O)(=O)C(F)(F)F)CCO [AZD4320]; conditions: max 1 µM
Outline: as §1

AZD5991 = compound: Cc1c2c(nn1C)CSCc1cc(n(C)n1)CSc1cc(c3ccccc3c1)OCCCc1c(C(=O)O)n(C)c3c-2c(Cl)ccc13 [AZD5991]; conditions: max 1 µM
Outline: as §1

AZD8186 = compound: C[C@@H](Nc1cc(F)cc(F)c1)c1cc(C(=O)N(C)C)cc2c(=O)cc(N3CCOCC3)oc12 [AZD8186]
Outline: as §1

Dasatinib = compound: CC1=C(C(=CC=C1)Cl)NC(=O)C2=CN=C(S2)NC3=CC(=NC(=N3)C)N4CCN(CC4)CCO [Dasatinib]; conditions: max 2 µM
Outline: as §1

Taselisib = compound: Cc1nc(-c2cn3c(n2)-c2ccc(-c4cnn(C(C)(C)C(N)=O)c4)cc2OCC3)n(C(C)C)n1 [Taselisib]; conditions: max 10 µM
Outline: as §1

AZD1390 = compound: CC(C)n1c(=O)n(C)c2cnc3cc(F)c(-c4ccc(OCCCN5CCCCC5)nc4)cc3c21 [AZD1390]; conditions: max 0.3 µM
Outline: as §1

Gefitinib = compound: COc1cc2ncnc(Nc3ccc(F)c(Cl)c3)c2cc1OCCCN1CCOCC1 [Gefitinib]; conditions: max 10 µM
Outline: as §1

Alisertib = compound: COc1cc(Nc2ncc3c(n2)-c2ccc(Cl)cc2C(c2c(F)cccc2OC)=NC3)ccc1C(=O)O [Alisertib]; conditions: max 10 µM
Outline: as §1

Savolitinib = compound: C[C@@H](c1ccc2nccn2c1)n1nnc2ncc(-c3cnn(C)c3)nc21 [Savolitinib]; conditions: max 1 µM
Outline: as §1

Lapatinib = compound: CS(=O)(=O)CCNCc1ccc(-c2ccc3ncnc(Nc4ccc(OCc5cccc(F)c5)c(Cl)c4)c3c2)o1 [Lapatinib]; conditions: max 10 µM
Outline: as §1

SN-38 = compound: CCc1c2c(nc3ccc(O)cc13)-c1cc3c(c(=O)n1C2)COC(=O)[C@]3(O)CC [SN-38]; conditions: max 0.3 µM
Outline: as §1

AZD6738 = compound: C[C@@H]1COCCN1C2=NC(=NC(=C2)C3(CC3)[S@](=N)(=O)C)C4=C5C=CNC5=NC=C4 [AZD6738]; conditions: max 10 µM
Outline: as §1

Palbociclib = compound: CC(=O)c1c(C)c2cnc(Nc3ccc(N4CCNCC4)cn3)nc2n(C2CCCC2)c1=O [Palbociclib]; conditions: max 10 µM
Outline: as §1

Crizotinib = compound: C[C@@H](Oc1cc(-c2cnn(C3CCNCC3)c2)cnc1N)c1c(Cl)ccc(F)c1Cl [Crizotinib]; conditions: max 10 µM
Outline: as §1

AZD5153 = compound: COc1nnc2ccc(N3CCC(c4ccc(OCCN5CCN(C)C(=O)[C@H]5C)cc4)CC3)nn12 [AZD5153]; conditions: max 1 µM
Outline: as §1

AZD7648 = compound: Cc1cc2ncnn2cc1Nc1ncc2c(n1)n(C1CCOCC1)c(=O)n2C [AZD7648]; conditions: max 10 µM
Outline: as §1

Trametinib = compound: CC(=O)Nc1cccc(-n2c(=O)n(C3CC3)c(=O)c3c(Nc4ccc(I)cc4F)n(C)c(=O)c(C)c32)c1 [Trametinib]; conditions: max 1 µM
Outline: as §1

Etoposide = compound: COc1cc([C@@H]2c3cc4c(cc3[C@@H](O[C@@H]3O[C@@H]5CO[C@@H](C)O[C@H]5[C@H](O)[C@H]3O)[C@H]3COC(=O)[C@H]23)OCO4)cc(OC)c1O [Etoposide]; conditions: max 10 µM
Outline: as §1

Carboplatin = compound: C1CC(C1)(C(=O)[O-])C(=O)[O-].N.N.[Pt+2] [Carboplatin]; conditions: max 10 µM
Outline: as §1

MK-2206 = compound: NC1(c2ccc(-c3nc4ccn5c(=O)[nH]nc5c4cc3-c3ccccc3)cc2)CCC1 [MK-2206]; conditions: max 10 µM
Outline: as §1

SRA737 = compound: N#Cc1cnc(Nc2cc(NC[C@H]3CNCCO3)c(C(F)(F)F)cn2)cn1 [SRA737]; conditions: max 10 µM
Outline: as §1

AZD5363 = compound: C1CN(CCC1(C(=O)N[C@@H](CCO)C2=CC=C(C=C2)Cl)N)C3=NC=NC4=C3C=CN4 [AZD5363]; conditions: max 10 µM
Outline: as §1

Doxorubicin = compound: COc1cccc2c1C(=O)c1c(O)c3c(c(O)c1C2=O)C[C@@](O)(C(=O)CO)C[C@@H]3O[C@H]1C[C@H](N)[C@H](O)[C@H](C)O1 [Doxorubicin]; conditions: max 1 µM
Outline: as §1

SG3199 = compound: CC1=CN2[C@@H](C1)C=NC3=CC(=C(C=C3C2=O)OC)OCCCCCOC4=C(C=C5C(=C4)N=C[C@@H]6CC(=CN6C5=O)C)OC [SG3199]; conditions: max 0.001 µM
Outline: as §1

Gemcitabine = compound: Nc1ccn([C@@H]2O[C@H](CO)[C@@H](O)C2(F)F)c(=O)n1 [Gemcitabine]; conditions: max 0.3 µM
Outline: as §1

5-Fluorouracil = compound: O=c1[nH]cc(F)c(=O)[nH]1 [5-Fluorouracil]; conditions: max 20 µM
Outline: as §1

Paclitaxel = compound: CC(=O)O[C@H]1C(=O)[C@@]2(C)[C@H]([C@H](OC(=O)c3ccccc3)[C@]3(O)C[C@H](OC(=O)[C@H](O)[C@@H](NC(=O)c4ccccc4)c4ccccc4)C(C)=C1C3(C)C)[C@]1(OC(C)=O)CO[C@@H]1C[C@@H]2O [Paclitaxel]; conditions: max 3 µM
Outline: as §1

[1] = compound: O=C(Nc1ccc2[nH]nc(-c3ccncc3)c2c1)[C@@H]1CCN(CC(=O)N2CCN(c3ccc(-c4ncccn4)cc3)CC2)C1; conditions: max 5 µM
Outline: as §1

Cell Line | IC50, cell viability 72 h (Capivasertib; max 3 µM) | IC50, cell viability 72 h (AZD1775) | IC50, cell viability 72 h (AZD0156) | IC50, cell viability 72 h (Olaparib; max 3 µM) | IC50, cell viability 72 h (Capivasertib; max 10 µM) | IC50, cell viability 72 h (Selumetinib) | IC50, cell viability 72 h (AZD2811) | IC50, cell viability 72 h (Venetoclax) | IC50, cell viability 72 h (Prexasertib) | IC50, cell viability 72 h (AZD4320) | IC50, cell viability 72 h (AZD5991) | IC50, cell viability 72 h (AZD8186; max 3 µM) | IC50, cell viability 72 h (Dasatinib) | IC50, cell viability 72 h (Taselisib) | IC50, cell viability 72 h (AZD1390) | IC50, cell viability 72 h (Gefitinib) | IC50, cell viability 72 h (Alisertib) | IC50, cell viability 72 h (Savolitinib) | IC50, cell viability 72 h (Lapatinib) | IC50, cell viability 72 h (SN-38) | IC50, cell viability 72 h (AZD6738) | IC50, cell viability 72 h (Palbociclib) | IC50, cell viability 72 h (Crizotinib) | IC50, cell viability 72 h (AZD5153) | IC50, cell viability 72 h (AZD7648) | IC50, cell viability 72 h (Trametinib) | IC50, cell viability 72 h (Etoposide) | IC50, cell viability 72 h (Carboplatin) | IC50, cell viability 72 h (MK-2206) | IC50, cell viability 72 h (AZD8186; max 10 µM) | IC50, cell viability 72 h (SRA737) | IC50, cell viability 72 h (AZD5363) | IC50, cell viability 72 h (Doxorubicin) | IC50, cell viability 72 h (SG3199) | IC50, cell viability 72 h (Gemcitabine) | IC50, cell viability 72 h (5-Fluorouracil) | IC50, cell viability 72 h (Paclitaxel) | IC50, cell viability 72 h (Olaparib; max 10 µM) | IC50, cell viability 72 h [1]
NCI-H1869 (Non-Small Cell Lung Carcinoma) | > 3000 nM | > 3000 nM | > 3000 nM | > 3000 nM |  |  |  |  |  |  |  |  |  |  |  |  |  |  |  |  |  |  |  |  |  |  |  |  |  |  |  |  |  |  |  |  |  |  | 
RC-K8 (B-Cell Non-Hodgkin's Lymphoma) |  | > 3000 nM | > 3000 nM | > 3000 nM | > 10000 nM | > 10000 nM | > 1000 nM | > 1000 nM | 14.5 nM | 856 nM | > 1000 nM | > 3000 nM | > 2000 nM | 7690 nM | > 300 nM | > 10000 nM | 3000 nM | > 1000 nM | > 10000 nM | 13.4 nM | 1630 nM | > 10000 nM | > 10000 nM | 100 nM | > 10000 nM | > 1000 nM |  |  |  |  |  |  |  |  |  |  |  |  | 
Ramos-2G6-4C10 (Burkitt's Lymphoma) |  | 307 nM | > 3000 nM |  |  | > 10000 nM | > 1000 nM | > 1000 nM | 10.5 nM | > 1000 nM | 168 nM |  | > 2000 nM | > 10000 nM | > 300 nM | > 10000 nM | > 10000 nM | > 1000 nM | > 10000 nM | 78.3 nM | 3090 nM | > 10000 nM | > 10000 nM | 389 nM | > 10000 nM | > 1000 nM | 9170 nM | > 10000 nM | 5610 nM | > 10000 nM | 3720 nM | > 10000 nM | 684 nM | > 1 nM | > 300 nM | > 20000 nM | 15.9 nM | > 10000 nM | > 5000 nM
T98G (Glioblastoma) |  | 1050 nM | > 3000 nM |  |  | > 10000 nM | > 1000 nM | > 1000 nM | 31 nM | > 1000 nM | > 1000 nM |  | 287 nM | 5870 nM | > 300 nM | > 10000 nM | > 10000 nM | > 1000 nM | > 10000 nM | > 300 nM | 2590 nM | > 10000 nM | > 10000 nM | > 1000 nM | > 10000 nM | > 1000 nM | > 10000 nM | > 10000 nM | > 10000 nM | 5450 nM | 2040 nM | > 10000 nM | > 1000 nM | > 1 nM | 119 nM | > 20000 nM | 14.6 nM | > 10000 nM | > 5000 nM
